Measured values reported in patent publication US7029652B2, “Method of treating tumors” (The Regents of the University of California, priority 1998, dated 2006).

How the values were obtained:
HBT 3477 cells = experiment: HBT 3477 cell binding radioimmunoreactive assay (RIA); parameters: species or system human
Description: ^90Y-DOTA-peptide-ChL6. ChL6 was conjugated to 1,4,7,10-tetraazacyclododecane-N,N′,N″,N′″-tetraacetic acid (DOTA) and radiolabeled with ^90Y as described by DeNardo, et al. J. Nucl. Med., 36:829–836, with greater than or equal to 80 percent efficiency to prepare ^90Y-DOTA-peptide-ChL6. ^90Y-DOTA-peptide-ChL6 was examined for structural and functional integrity by molecular sieving high performance liquid chromatography (HPLC), cellulose acetate electrophoresis (CAE), and HBT 3477 cell binding radioimmunoreactive assay (RIA). […] Immunoreactive binding to live cells indicated greater than 92% reactivity; administration as a single dose of 200, 230 or 260 […] ^90Y-DOTA-peptide-ChL6.

HBT 3477 tumors [1] = experiment: TUNEL analysis of total cell apoptosis in tumors; format: in vivo, mice; settings: 6 days
Method: (§1) Cellular immunopathology groups. Unless otherwise noted, groups consisted of 2 mice, each bearing 2 tumors, for a total of 4 tumors analyzed at each time point. […] The tumors were removed, cut in half, frozen in optimal cutting temperature (O.C.T). medium, and stored at about −70° C. until sectioning (10-μm sections). All time points were evaluated for apoptosis by terminal deoxynucleotidyl transferase-mediated dUTP nick end labeling (TUNEL, Cavrieli, et al. J. Cell Bio., 119: 493–501 (1992)) analysis, and selected time points (untreated, 1,5 and 6 days) were assessed for differences in proliferation rate (Ki67) and microvessel density (CD31).
TUNEL analysis of total and endothelial apoptosis. Tumors were cut into 10-μm sections onto Fisher superplus slides (Fisher, Pittsburgh, Pa.), air-dried for 1 hour and frozen at about −70° C. until TUNEL analysis with ApopTag Red kit (rhodamine used as label, Intergen, Purchase, N.Y.) following the manufacturer's instructions subsequent to fixation for about 10 minutes in 1% paraformadehyde. After TUNEL, the slides were rinsed, and incubated overnight at 4° C. with a rat anti-mouse MAb against CD31 at 1:100 dilution (Pharmingen, San Diego, Calif.) to identify endothelial cells. Slides were rinsed and incubated for 1 hour with an anti-rat antibody linked to FITC (1:50 dilution) (Pharmingen). Slides were rinsed, dipped briefly in 4,6-diamidino-2-phenylindole (DAPI, 0.2 μg/ml) for background nuclear stain, rinsed again and mounted, followed by storage in the dark at about 4° C. until quantitation.
Quantitation of total apoptosis and endothelial apoptosis. An Olympus microscope equipped with a Chroma Pinkle Filter Set (Chroma, Brattleboro, Vt.) with excitation filters for UV, FITC and rhodamine and dual/triple bandpass filters to allow simultaneous viewing of multiple wavelengths, was used to quantify 6 randomly chosen X600 fields (150,000 μm^2/field) in non-necrotic regions of each section. Fields were chosen to cover the entire viewing area using DAPI label, which typically included about 300–350 cells. Total apoptosis was determined by the average number of positive nuclei per field for each tumor while endothelial apoptosis was determined using the same fields with a dual bandpass filter to count cells labeled by both FITC (CD31) and rhodamine (TUNEL). Fields were chosen from apparently non-necrotic areas of tumor sections, as HBT 3477 xenografts typically grow quickly in nude mice, doubling their volumes in 6 days, resulting in central necrosis of untreated tumors. As TUNEL may label necrotic cells, though less intensely, this strategy was chosen over a completely random process.

HBT 3477 tumors [2] = experiment: Microvessel density (CD31) in tumors; format: in vivo, mice
Method: as §1
(§2) Proliferation and microvessel density Analyses. 10-μm sections of tumors from untreated and mice treated with cRGD pentapeptide, RIT and CMRIT method and sacrificed at 1, 5 and 6 days after treatment were fixed for 10 minutes in ice-cold acetone, rinsed in PBS, and briefly incubated in methanol with 0.6% H2O2 (5 minutes). After rinsing in PBS, sections were blocked for 10 minutes with 10% goat serum and 1% bovine serum albumin in PBS. Mouse anti-Ki67 MAb (Pharmingen, clone B56) was applied in blocking solution (6.25 μg/ml) and the slides were incubated at room temperature for 2 hours, followed by rinsing in PBS. Goat anti-mouse rhodamine-labeled or goat anti-mouse Cy-3-labeled antibody was applied (Jackson ImmunoResearch Laboratories, Inc, West Grove, Pa., 1:100) and the slides were incubated for 1 hour at room temperature. After rinsing in PBS the sections were incubated for 1 hour at room temperature with rat anti-mouse CD31 antibody (Pharmingen, 1:100), followed by rinsing in PBS and a subsequent 1 hour incubation with goat anti-rat FITC-labeled antibody (Pharmingen, 1:50). After rinsing in PBS, the slides were counterstained with DAPI (0.4 μg/ml) and mounted in Biomeda gel mount (Fisher) under coverslips. Quantitation of Ki67 was performed using an Olympus microscope at X1000 magnification for assessment of proliferation. The mean total number of Ki67-positive cells/field in a tumor was determined by counts from 6 fields per tumor chosen randomly by DAPI stain. Microvessel density was determined by counting the number of CD31-stained vessels per random field at X400 magnification. Any endothelial cell or cell cluster positive for CD31, which was separate from an adjacent cluster, was counted as one microvessel. Six randomly chosen fields per tumor section were used to establish an average for each tumor. Average microvessel density for a treatment group was determined by averaging the values from 4 tumors/group.

HBT 3477 tumors [3] = experiment: Proliferation (Ki67) in tumors; format: in vivo, mice
Method: as §1, §2

HBT 3477 tumors [4] = experiment: Tumoricidal effect in HBT 3477 breast cancer xenografts; format: in vivo, mice
Method: Mice. Female athymic Balb/c nu/nu mice (7–10 week old; Harlan Sprague Dawley, Inc., Frederick, Md.) were maintained according to University of California animal care guidelines. HBT 3477 cells (3.0×10^6), harvested in log phase, were injected subcutaneously into one side of the abdomen for therapy studies (except where noted) and into both sides for immunopathology studies. Injection of RIT was by tail vein and cyclo-(Arg-Gly-Asp-D-Phe-[N-Me]-Val) was delivered by intraperitoneal (i.p.) injection. “Day 0” was designated as the time of RIT injection or, for first cRGD pentapeptide injection, for cRGD pentapeptide only group. Mice were sacrificed by cervical dislocation for immunopathology studies at the times indicated, when tumor burden exceeded allowed limits, or at 84 days for therapy studies.
Control (No RIT) Treatment groups.
High Dose RIT Treatment groups.
Low Dose RIT Treatment groups. […] These doses were given on day 0, 1 hour prior to RIT, followed by 5 more doses on days 2, 4, 6, 8, and 10 (30 mice, all with 1 tumor each).
Tumoricidal effect. Tumors were measured with calipers in 3 orthogonal diameters 3 times per week. Tumor volume was calculated using the formula for hemiellipsoids (DeNardo et al. Clin. Cancer Res., 3:71–79 (1997)). Initial tumor volume was defined as the volume on the day before treatment. Tumors that completely regressed were considered to have a volume of zero. […] For mice bearing two tumors with differing responses, tumor response was described according to both tumor responses. Mice dying prior to 30 days from toxicity were excluded from tumor response results.
(§3) Statistical Analysis. Statistical analysis of mortality data for RIT and CMRIT method treated mice was performed using a Fisher Exact test with StatExact software to determine if mortality was different. Statistical analysis of therapy data was done using a Cochran Mantel Haenszel test to evaluate effect of RIT dose on outcome for RIT and CMRIT method groups. Comparison of cure rates to all other responses for RIT vs. CMRIT method groups was done by Fisher Exact test, with the best tumor response used for 2-tumored animals for statistical purposes. Statistical differences between immunopathology groups at the different time points were assessed by analysis of variance (ANOVA) (Fisher PLSD) using STATview software as appropriate, with p<0.05 considered significant.

[5] = Toxicity: mortality, weights and blood counts; format: in vivo
Method: Toxicity. Weights and blood counts were measured 2–3 times per week for 12 weeks post-injection or until death. Blood samples were collected from tail veins using 2 μL microcapillary pipets. Samples from mice within a dose group were pooled, and diluted 1:200 in phosphate-buffered saline (PBS, 0.9% saline/10 mM sodium phosphate, pH 7.6) for red blood cell (RBC) counts; 1:100 in 1% (w/v) ammonium oxalate for platelet counts; or 1:20 in 3% (w/v) acetic acid for white blood cell (WBC) counts.
as §3

[6] = combined RIT 200–260 μCi, best response (parentheses)
[7] = combined RIT 200–260 μCi, worst response
[8] = high dose RIT 260 μCi, best response (parentheses)
[9] = high dose RIT 260 μCi, worst response
[10] = low dose RIT, best response (parentheses)

^90Y-1,4,7,10-tetraazacyclododecane-N,N′,N″,N′″-tetraacetic acid-peptide-ChL6 [RIT]
Immunoreactive binding to live cells, reactivity (HBT 3477 cells): greater than 92%
TUNEL-positive tumor and endothelial cells (total cells) (HBT 3477 tumors [1]): 21.4±2.9 cells/field
total cell apoptosis, percent of cells (HBT 3477 tumors [1]): 6.1%
Microvessel density, average number ± SE of CD31 positive regions (HBT 3477 tumors [2]; Day 1, six fields per tumor at 400X): 15 ± 1
Microvessel density, average number ± SE of CD31 positive regions (HBT 3477 tumors [2]; Day 5): 13 ± 1
Microvessel density, average number ± SE of CD31 positive regions (HBT 3477 tumors [2]; Day 6): 9 ± 1 e
Proliferating cells, average no. of Ki67-positive cells (HBT 3477 tumors [3]; Day 1, six fields per tumor at 1000X): 18 ± 1
Proliferating cells, average no. of Ki67-positive cells (HBT 3477 tumors [3]; Day 5): 13 ± 1 f
Proliferating cells, average no. of Ki67-positive cells (HBT 3477 tumors [3]; Day 6): 7 ± 1
CR complete regression (number of mice) (HBT 3477 tumors [4]; [6]): 10
Cure (number of mice) (HBT 3477 tumors [4]; [6]): 9
NR no regression (number of mice) (HBT 3477 tumors [4]; [6]): 0
PR partial regression (number of mice) (HBT 3477 tumors [4]; [6]): 27
CR complete regression (number of mice) (HBT 3477 tumors [4]; [7]): 6
NR no regression (number of mice) (HBT 3477 tumors [4]; [7]): 3
PR partial regression (number of mice) (HBT 3477 tumors [4]; [7]): 29
cure rate (HBT 3477 tumors [4]; combined low and high dose RIT): 20%
Cure (number of mice) (HBT 3477 tumors [4]; combined low and high dose RIT 200–260 μCi, worst response): 8
Cure (number of mice) (HBT 3477 tumors [4]; high dose RIT 260 μCi (CMRIT + cRGD 250 μg × 6), worst response): 4
CR complete regression (number of mice) (HBT 3477 tumors [4]; [8]): 6
PR partial regression (number of mice) (HBT 3477 tumors [4]; [8]): 16
CR complete regression (number of mice) (HBT 3477 tumors [4]; [9]): 2
NR no regression (number of mice) (HBT 3477 tumors [4]; [9]): 0
PR partial regression (number of mice) (HBT 3477 tumors [4]; [9]): 20
cures (HBT 3477 tumors [4]; high dose RIT (260 μCi)): 15%
Cure (number of mice) (HBT 3477 tumors [4]; low dose RIT 200–230 μCi (CMRIT 200 μCi + cRGD 250 μg × 6), worst response): 4
Cure (number of mice) (HBT 3477 tumors [4]; low dose RIT 200–230 μCi, best response (parentheses)): 5
cures (HBT 3477 tumors [4]; low dose RIT (200–230 μCi)): 25%
NR no regression (number of mice) (HBT 3477 tumors [4]; [10]): 0
PR partial regression (number of mice) (HBT 3477 tumors [4]; [10]): 11
CR complete regression (number of mice) (HBT 3477 tumors [4]; low dose RIT, worst response): 4
NR no regression (number of mice) (HBT 3477 tumors [4]; low dose RIT, worst response): 3
PR partial regression (number of mice) (HBT 3477 tumors [4]; low dose RIT, worst response): 9
weight, RBC, WBC and platelet counts, in words ([5]; comparison as stated in the sentence): decreased weight, RBC, WBC and platelet counts
mortality ([5]; high dose RIT (260 μCi)): 33%
mortality ([5]; low dose RIT (200–230 μCi)): 29%
